The source of these data is PubChem BioAssay (NCI).

Experiment in all cases: DTP human tumour cell line panel, 48 h
In assay [1] the test system is T-47D breast.
Assay [2] concerns LOX IMVI melanoma.
Assay [3] deals with M14 melanoma.
Assay [4] concerns COLO 205 colon.
The subject of assay [5] is OVCAR-5 ovarian.
For assay [6], the system named is SR leukemia.
The subject of assay [7] is K-562 leukemia.
Assay [8] concerns PC-3 prostate.
For assay [9], the system named is SNB-75 CNS.
Assay [10] deals with MOLT-4 leukemia.

SMILES strings stand for the structures. “And” between values parts separate entries of the source, which are not always exact repeats. Equal entries are not always repeated.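 Values below derive from 48-hour exposures of cells grown in 96-well plates, with endpoints linearly interpolated between the two concentrations bracketing the appropriate inhibition level. GI50: concentration for 50% inhibition of growth. TGI: total growth inhibition.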 Bounds are passed on as bounds.

In general, GI50 refers to the concentration at which growth is held to half of that of the control. By TGI is commonly meant the concentration giving total growth inhibition. Lower therefore signals greater sensitivity of the cells. As to `O=C1/C(=C\c2ccc([N+](=O)[O-])cc2)CS(=O)(=O)C/C1=C/c1ccc([N+](=O)[O-])cc1`, the GI50 in [1] was 0.446 µM; in assay [2], 0.0309 µM; in assay [3], 0.131 µM; in assay [4], 0.252 µM; in [5], 0.126 µM; in [6] it was 0.908 µM. Moreover, the GI50 in assay [8] is 0.194 µM. The concentration for total growth inhibition (TGI) in assay [1] was 2.95 µM; in [3], 0.331 µM and 2.51 µM; in assay [4], 0.983 µM and 0.645 µM; in assay [7], over 100 µM; in assay [8], 0.713 µM and 1.51 µM; in assay [9], 53.2 µM.
With `O=C(O)c1ccccc1-c1ccccc1C(=O)Nc1ccc2c(c1)Cc1ccccc1-2`, the TGI is over 100 µM in assay [1]; 54.5 µM in [2]; 41.6 µM in assay [3]; 31.2 µM in assay [4]; 49.2 µM in [5]; 65.1 µM in [6]. Further, the TGI in assay [8] and in [9] was over 100 µM each time.
As to `O=C1C=CC(=O)c2c1cc1ccccc1c2O`, the TGI is 3.49 µM in assay [1]; 9.06 µM in assay [2]; 26.5 µM in assay [3]; 6.15 µM in assay [4]; 32.5 µM in assay [5]; 4.85 µM in assay [7]. In addition, the TGI is 19.1 µM in [8] and 33.2 µM in [9].
For `O=C1NC(=O)C(N2CCc3ccccc32)=C1c1ccc(Cl)cc1`, the GI50 in assay [1], in [2], in assay [3], in assay [4], in [5] and in [7] was over 25 µM each time. Moreover, the values for the GI50 in [10], in assay [8] and in [9] were over 25 µM, over 22.8 µM and over 25 µM, respectively. Also, the TGI in assay [1], in assay [2], in assay [3], in assay [4], in [5] and in assay [7] was over 25 µM throughout. The TGI in [10], in assay [8] and in [9] was over 25 µM each time.
For `CC(=O)NC1CCCN(O)C(=O)/C=C(/C)CCOC(=O)C(NC(C)=O)CCCN(O)C(=O)/C=C(/C)CCOC(=O)C(NC(C)=O)CCCN(O)C(=O)/C=C(/C)CCOC1=O.[Fe]` (stereo not given), the GI50 in [1], in assay [2], in [3], in [4], in assay [5] and in assay [6] was over 100 µM each time. Also, the GI50 in [10], in [8] and in assay [9] was over 100 µM each time. Further, the TGI in assay [1], in assay [2], in [3], in assay [4], in assay [5] and in assay [6] was over 100 µM throughout. Further, the TGI in assay [10], in assay [8] and in assay [9] was over 100 µM throughout.
Regarding `Cc1cn(C2CC(N=[N+]=[N-])C(CO)O2)c(=O)[nH]c1=O` (stereo not given), the GI50 in assay [1] is over 1000 µM; in assay [2], 532 µM; in assay [3], over 1000 µM; in [4], 433 µM; in assay [5], over 1000 µM; in assay [10] it was over 1000 µM. In addition, the TGI in [1], in assay [2], in assay [3], in assay [4], in assay [5] and in assay [6] was over 1000 µM in each case. Besides, the TGI in [7], in assay [10] and in assay [8] was over 1000 µM each time.
Consider `CC[C@@]1(OC(=O)C(N)CCC(=O)O)C(=O)OCc2c1cc1n(c2=O)Cc2cc3ccccc3nc2-1` (stereo not given in full), for which the TGI in assay [1] was over 100 µM; in assay [2], 0.482 µM; in assay [3] it was 1.2 µM; in [4], 3.03 µM; in assay [5], 8.09 µM; in [7], over 100 µM. Moreover, the TGI in [10] is 0.0992 µM; in [8], over 100 µM; in assay [9], 1.35 µM.
Consider `O=C(CCCCCNC1=CC(=O)c2ccccc2C1=O)NCCC[Te]c1ccccc1`, for which the GI50 was 0.676 µM in assay [1]; 0.3 µM in assay [2]; 0.473 µM in assay [3]; 0.416 µM in assay [4]; 0.362 µM in [5]; 0.72 µM in assay [7]. In addition, the figures for the GI50 in assay [10], in [8] and in [9] were 0.258 µM, 0.25 µM and 0.29 µM, respectively. Moreover, the TGI in assay [1] came to 2.59 µM; in assay [2] it was 1.4 µM; in assay [3] it was 1.86 µM; in assay [4], 1.36 µM; in assay [5] it was 1.48 µM; in assay [7], 3.83 µM. The TGI in [10] is 0.746 µM; in assay [8] it was 2.58 µM; in assay [9], 1.48 µM.
`CS(=O)/C(C#N)=C\C=C\c1cccc(Cl)c1` (stereo not given): the GI50 in [1] is 2.67 µM; in assay [2], 1.31 µM; in assay [3], 2.57 µM; in [4] it was 2.25 µM; in assay [6], 0.636 µM; in [7], 2.51 µM. In addition, the GI50 was 2.54 µM in [10], 2.68 µM in assay [8] and 7.11 µM in [9]. The TGI in assay [1] is 17 µM; in assay [2], 2.73 µM; in [3], 11.2 µM; in assay [4] it was 4.44 µM; in assay [6] it was over 100 µM; in assay [7], over 100 µM. The TGI is 16.4 µM in assay [10], 12.8 µM in assay [8] and 37.4 µM in [9].
